Test [1] addresses Coagulation factor VII/tissue factor (Homo sapiens, UniProt P08709). Kind of test: Inhibition of tissue factor/factor 7a. It counts as protein-complex assay.
The target in another test is Prothrombin (Homo sapiens, UniProt P00734). Kind of test: Inhibition of thrombin.
Test [2] can be described thus: Selectivity ratio of IC50 for tissue factor/factor 7a to IC50 for trypsin.
The target of a further test is Coagulation factor X (Homo sapiens, UniProt P00742).

pIC50: −log10 of the molar value.

Chain of Coagulation factor VII/tissue factor (P08709 61-212 limits assumed): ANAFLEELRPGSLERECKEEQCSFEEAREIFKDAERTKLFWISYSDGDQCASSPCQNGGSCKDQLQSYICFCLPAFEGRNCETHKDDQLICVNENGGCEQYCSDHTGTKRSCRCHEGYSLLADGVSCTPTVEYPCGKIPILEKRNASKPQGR
Chain of Coagulation factor VII/tissue factor (P08709 213-466 limits assumed): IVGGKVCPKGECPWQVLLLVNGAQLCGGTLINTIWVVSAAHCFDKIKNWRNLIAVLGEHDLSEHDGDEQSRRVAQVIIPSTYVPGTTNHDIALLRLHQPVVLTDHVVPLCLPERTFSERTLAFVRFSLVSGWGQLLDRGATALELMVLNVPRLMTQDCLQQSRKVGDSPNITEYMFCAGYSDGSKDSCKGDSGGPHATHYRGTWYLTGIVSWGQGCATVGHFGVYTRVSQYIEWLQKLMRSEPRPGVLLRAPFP
Chain of Coagulation factor VII/tissue factor (P13726 33-295 partner limits assumed): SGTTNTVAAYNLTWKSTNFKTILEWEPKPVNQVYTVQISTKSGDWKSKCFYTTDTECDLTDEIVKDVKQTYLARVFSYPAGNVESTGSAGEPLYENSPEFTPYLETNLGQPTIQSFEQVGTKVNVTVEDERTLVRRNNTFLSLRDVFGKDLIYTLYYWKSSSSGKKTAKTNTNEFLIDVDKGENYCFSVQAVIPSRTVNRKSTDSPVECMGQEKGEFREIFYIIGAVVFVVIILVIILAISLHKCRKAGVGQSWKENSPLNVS
Chain of Coagulation factor X (P00742 41-179 limits assumed): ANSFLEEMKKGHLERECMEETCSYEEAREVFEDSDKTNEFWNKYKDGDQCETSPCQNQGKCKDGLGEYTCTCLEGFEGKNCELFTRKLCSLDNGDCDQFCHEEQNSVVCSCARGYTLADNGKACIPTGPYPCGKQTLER
Chain of Coagulation factor X (P00742 235-488 limits assumed): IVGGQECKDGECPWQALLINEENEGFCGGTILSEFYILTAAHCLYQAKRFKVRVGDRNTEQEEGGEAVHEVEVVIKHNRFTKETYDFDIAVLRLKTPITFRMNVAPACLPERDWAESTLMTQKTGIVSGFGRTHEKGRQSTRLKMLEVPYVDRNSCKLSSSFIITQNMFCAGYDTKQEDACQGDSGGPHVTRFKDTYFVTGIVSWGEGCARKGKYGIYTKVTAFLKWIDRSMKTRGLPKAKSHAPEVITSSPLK

Regarding `CC(C)CNC(=O)c1ccc(-c2ccc(C(O)CO)cc2C(=O)Nc2ccc(C(=N)N)cc2)c(C(=O)O)c1` (stereo not drawn), the pIC50 (as a rule, the negative decadic logarithm of the IC50, by convention in mol/L) in test [1] was 5.79.

On to `CC(C)CNC(=O)c1ccc(-c2ccc(-c3ccncc3)cc2C(=O)Nc2ccc(C(=N)N)cc2)c(C(=O)O)c1`, for which the negative logarithm of the IC50 (pIC50) in test [1] was 6.64; against Prothrombin, 4.45; on Coagulation factor X it was 4.71. Further, the Ratio IC50 in test [2] was 5.3.

As for `CC(C)CNC(=O)c1ccc(-c2ccc(-c3sccc3CO)cc2C(=O)Nc2ccc(C(=N)N)cc2)c(C(=O)O)c1`, the negative-log IC50 (pIC50) in test [1] was 6.48; on Prothrombin it was 4.30; on Coagulation factor X, 6.19. Further, the Ratio IC50 in test [2] was found to be 13.3.

With `CC(C)CNC(=O)c1ccc(-c2ccc(-c3ccc[nH]3)cc2C(=O)Nc2ccc(C(=N)N)cc2)c(C(=O)O)c1`, the pIC50 in test [1] was 7.85; at Prothrombin, 4.70; against Coagulation factor X, 7.30. Moreover, the Ratio IC50 in test [2] is 30.7.

For the molecule `CC(C)CNC(=O)c1ccc(-c2ccc(C#CCCO)cc2C(=O)Nc2ccc(C(=N)N)cc2)c(C(=O)O)c1`, the pIC50 was 6.30 in test [1], 4.75 at Prothrombin and 4.23 against Coagulation factor X. Moreover, the Ratio IC50 in test [2] came out at 0.8.

For the molecule `CC(C)CNC(=O)c1ccc(-c2ccc(-c3cccs3)cc2C(=O)Nc2ccc(C(=N)N)cc2)c(C(=O)O)c1`, the pIC50 in test [1] was 8.00; on Prothrombin it was 5.10; on Coagulation factor X, 6.82. Besides, the Ratio IC50 in test [2] stood at 16.

Turning to `CC(C)CNC(=O)c1ccc(-c2ccc(CN=[N+]=[N-])cc2C(=O)Nc2ccc(C(=N)N)cc2)c(C(=O)O)c1`, the pIC50 in test [1] is 7.22.

On to `CC(C)CNC(=O)c1ccc(-c2ccc(O)cc2C(=O)Nc2ccc(C(=N)N)cc2)c(C(=O)O)c1`, for which the pIC50 in test [1] was 7.17; at Prothrombin it was 4.30; against Coagulation factor X, 4.30. For the same molecule, in test [2], the Ratio IC50 stood at 5.7.

`CC(C)CNC(=O)c1ccc(-c2ccc(C#CC(C)(C)O)cc2C(=O)Nc2ccc(C(=N)N)cc2)c(C(=O)O)c1` had a pIC50 in test [1] of 6.03.

The molecule `CC(C)CNC(=O)c1ccc(-c2ccc(-c3ccc(CO)s3)cc2C(=O)Nc2ccc(C(=N)N)cc2)c(C(=O)O)c1` had a pIC50 in test [1] of 6.19.

In the case of `CC(C)CNC(=O)c1ccc(-c2ccccc2C(=O)Nc2ccc(C(=N)N)cc2)c(C(=O)O)c1`, the negative logarithm of the IC50 (pIC50) is 6.92 in test [1], 4.19 on Prothrombin and 3.99 against Coagulation factor X. Also, the Ratio IC50 in test [2] was 1.5.

On to `C=C=Cc1ccc(-c2ccc(C(=O)NCC(C)C)cc2C(=O)O)c(C(=O)Nc2ccc(C(=N)N)cc2)c1`, for which the pIC50 in test [1] is 8.05; on Prothrombin it was 4.55; at Coagulation factor X, 5.82. The Ratio IC50 in test [2] turned out to be 59.8.

As to `CC(C)CNC(=O)c1ccc(-c2ccc(C#CCO)cc2C(=O)Nc2ccc(C(=N)N)cc2)c(C(=O)O)c1`, in test [1], the pIC50 was 6.49.

Regarding `CC(C)CNC(=O)c1ccc(-c2ccc(CN)cc2C(=O)Nc2ccc(C(=N)N)cc2)c(C(=O)O)c1`, the pIC50 in test [1] is 5.91.

Consider `CC(C)CNC(=O)c1ccc(-c2ccc(-c3cccn3C)cc2C(=O)Nc2ccc(C(=N)N)cc2)c(C(=O)O)c1`, for which the pIC50 in test [1] is 7.12; against Prothrombin, 4.06; against Coagulation factor X it was 7.30. Also, the Ratio IC50 in test [2] turned out to be 5.4.

Consider `CC(C)CNC(=O)c1ccc(-c2ccc(-c3ccccc3)cc2C(=O)Nc2ccc(C(=N)N)cc2)c(C(=O)O)c1`, for which the pIC50 in test [1] was 7.01; against Prothrombin, 4.93; at Coagulation factor X, 6.46. For the same molecule, the Ratio IC50 in test [2] came out at 4.3.

As to `CC(C)CNC(=O)c1ccc(-c2ccc(C=CCO)cc2C(=O)Nc2ccc(C(=N)N)cc2)c(C(=O)O)c1`, the pIC50 was 7.28 in test [1], 4.64 on Prothrombin and 5.18 at Coagulation factor X. For the same molecule, the Ratio IC50 in test [2] stood at 34.

With `C=C(C)/C=C\c1ccc(-c2ccc(C(=O)NCC(C)C)cc2C(=O)O)c(C(=O)Nc2ccc(C(=N)N)cc2)c1`, the pIC50 in test [1] is 6.89; at Coagulation factor X, 6.51.

As to `CC(C)CNC(=O)c1ccc(-c2ccc(-c3ccsc3C(=O)O)cc2C(=O)Nc2ccc(C(=N)N)cc2)c(C(=O)O)c1`, the pIC50 in test [1] was 6.72.

These data come from ChEMBL document CHEMBL1137759, “Design, parallel synthesis, and crystal structures of biphenyl antithrombotics as selective inhibitors of tissue factor FVIIa complex. Part 1: Exploration of S2 pocket pharmacophores” (Bioorg Med Chem, 2009).
